Experiments:
[1] = target: PXR (Homo sapiens (Human), UniProt O75469); experiment: Human PXR activation assay (luciferase reporter gene assay, DPX2 cells); assay type: cell-based; details: human
Method: A stably transformed tumor cell line (DPX2) was plated on 96-well microtiter plates. DPX2 cells harbor the human PXR gene (NR112) and a luciferase reporter gene linked to two promoters identified in the human CYP3A4 gene, namely XREM and PXRE. […] The number of viable cells was determined and the reporter gene activity was assessed. Positive control: […]

[2] = in vitro; details: human, CC50 nM in MT-4

PXR, sequence (O75469 whole entry): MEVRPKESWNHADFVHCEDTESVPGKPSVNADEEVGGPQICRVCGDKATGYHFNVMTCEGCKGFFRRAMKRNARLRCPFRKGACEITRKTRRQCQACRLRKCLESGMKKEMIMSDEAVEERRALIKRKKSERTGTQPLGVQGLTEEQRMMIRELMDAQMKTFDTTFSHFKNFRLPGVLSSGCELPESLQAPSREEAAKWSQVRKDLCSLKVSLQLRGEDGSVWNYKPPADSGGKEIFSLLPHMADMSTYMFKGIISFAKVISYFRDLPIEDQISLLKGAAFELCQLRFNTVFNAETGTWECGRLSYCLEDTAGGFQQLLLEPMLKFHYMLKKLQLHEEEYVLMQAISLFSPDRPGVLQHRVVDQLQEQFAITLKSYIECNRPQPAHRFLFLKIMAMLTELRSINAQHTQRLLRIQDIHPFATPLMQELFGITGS

Structure (SMILES)	Emax at 24 h, 15 µM [1] [%]	CC50 at 5 days [2] [nM]
O=C(NC1(c2ccc(F)cc2F)CC1)c1cn2c(c(O)c1=O)C(=O)N1C(C2)O[C@H]2CCC[C@@H]1C2 (stereo partly drawn) [Compound 28, (2S,6R)-N-(1-(2,4-difluorophenyl)cyclopropyl)-9-hydroxy-8,10-dioxo-3,4,5,6,8,10,14,14a-octahydro-2H-2,6-methanopyrido[1′,2′:4,5]pyrazino[2,1-b][1,3]oxazocine-11-carboxamide]	6	18700
O=C(NCc1c(F)cc(F)cc1F)c1cn2c(c(O)c1=O)C(=O)N1[C@@H]3C[C@@H](C(F)C3F)[C@@H]1C2 (stereo partly drawn) [Compound 103, (1R,4R,12aR)-2,3-difluoro-7-hydroxy-6,8-dioxo-N-(2,4,6-trifluorobenzyl)-1,2,3,4,6,8,12,12a-octahydro-1,4-methanodipyrido[1,2-a:1′,2′-d]pyrazine-9-carboxamide]	0	35100
O=C(NCc1ccc(F)c(F)c1F)c1cn2c(c(O)c1=O)C(=O)N1[C@H]3CC[C@H](C3)[C@@H]1C2 [Compound 91, (1R,4S,12aR)-7-hydroxy-6,8-dioxo-N-(2,3,4-trifluorobenzyl)-1,2,3,4,6,8,12,12a-octahydro-1,4-methanodipyrido[1,2-a:1′,2′-d]pyrazine-9-carboxamide]	3	7180
O=C(NCc1c(F)cc(F)cc1F)c1cn2c(c(O)c1=O)C(=O)N1[C@@H]3C[C@H]([C@@H]1C2)C(F)(F)C3 [Compound 57, (1R,4R,12aR)-2,2-difluoro-7-hydroxy-6,8-dioxo-N-(2,4,6-trifluorobenzyl)-1,2,3,4,6,8,12,12a-octahydro-1,4-methanodipyrido[1,2-a:1′,2′-d]pyrazine-9-carboxamide]	3	11800
O=C(NCc1c(F)ccc(Cl)c1F)c1cn2c(c(O)c1=O)C(=O)N1[C@H]3CC[C@H](C3)[C@@H]1C2 [Compound 73, (1R,4S,12aR)-N-(3-chloro-2,6-difluorobenzyl)-7-hydroxy-6,8-dioxo-1,2,3,4,6,8,12,12a-octahydro-1,4-methanodipyrido[1,2-a:1′,2′-d]pyrazine-9-carboxamide]	7	9190
C[C@H]1C[C@@H]2C[C@H]1N1C(=O)c3c(O)c(=O)c(C(=O)NCc4c(F)cc(F)cc4F)cn3C[C@H]21 [Compound 86, (1R,3S,4R,12aS)-7-hydroxy-3-methyl-6,8-dioxo-N-(2,4,6-trifluorobenzyl)-1,2,3,4,6,8,12,12a-octahydro-1,4-methanodipyrido[1,2-a:1′,2′-d]pyrazine-9-carboxamide]	30	22400
O=C(NCc1ccc(F)c(Cl)c1F)c1cn2c(c(O)c1=O)C(=O)N1[C@H]3CC[C@H](C3)[C@@H]1C2 [Compound 69, (1R,4S,12aR)-N-(3-chloro-2,4-difluorobenzyl)-7-hydroxy-6,8-dioxo-1,2,3,4,6,8,12,12a-octahydro-1,4-methanodipyrido[1,2-a:1′,2′-d]pyrazine-9-carboxamide]	5	4770
O=C(NCc1cc(Cl)c(F)cc1F)c1cn2c(c(O)c1=O)C(=O)N1[C@H]3CC[C@H](C3)[C@@H]1C2 [Compound 80, (1R,4S,12aR)-N-(5-chloro-2,4-difluorobenzyl)-7-hydroxy-6,8-dioxo-1,2,3,4,6,8,12,12a-octahydro-1,4-methanodipyrido[1,2-a:1′,2′-d]pyrazine-9-carboxamide]	2	5040
O=C(NCc1c(F)cc(F)cc1Cl)c1cn2c(c(O)c1=O)C(=O)N1[C@H]3CC[C@H](C3)[C@@H]1C2 [Compound 93, (1R,4S,12aR)-N-(2-chloro-4,6-difluorobenzyl)-7-hydroxy-6,8-dioxo-1,2,3,4,6,8,12,12a-octahydro-1,4-methanodipyrido[1,2-a:1′,2′-d]pyrazine-9-carboxamide]	9	6160
O=C(NCc1c(F)cc(F)cc1F)c1cn2c(c(O)c1=O)C(=O)N1[C@H]3CCC[C@H](C3)[C@H]1C2 [Compound 85, (6aS,7R,11S)-1-hydroxy-2,13-dioxo-N-(2,4,6-trifluorobenzyl)-6,6a,7,8,9,10,11,13-octahydro-2H-7,11-methanopyrido[1′,2′:4,5]pyrazino[1,2-a]azepine-3-carboxamide]	77	10400
O=C(NCc1ccc(F)c(Cl)c1F)c1cn2c(c(O)c1=O)C(=O)N1[C@H]3CC[C@H](C3)[C@H]1C2 [Compound 61, (1R,4S,12aS)-N-(3-chloro-2,4-difluorobenzyl)-7-hydroxy-6,8-dioxo-1,2,3,4,6,8,12,12a-octahydro-1,4-methanodipyrido[1,2-a:1′,2′-d]pyrazine-9-carboxamide]	1	25900
O=C(NCc1ccc(F)c(F)c1)c1cn2c(c(O)c1=O)C(=O)N1[C@@H]3CC[C@@H](C3)O[C@H]1C2 [Compound 18, (2S,5R,13aS)-N-(3,4-difluorobenzyl)-8-hydroxy-7,9-dioxo-2,3,4,5,7,9,13,13a-octahydro-2,5-methanopyrido[1′,2′:4,5]pyrazino[2,1-b][1,3]oxazepine-10-carboxamide]	4	10300
Cc1cccc(CNC(=O)c2cn3c(c(O)c2=O)C(=O)N2[C@H]4CC[C@H](C4)[C@@H]2C3)c1F [Compound 70, (1R,4S,12aR)-N-(2-fluoro-3-methylbenzyl)-7-hydroxy-6,8-dioxo-1,2,3,4,6,8,12,12a-octahydro-1,4-methanodipyrido[1,2-a:1′,2′-d]pyrazine-9-carboxamide]	10	8410
O=C(NCc1c(F)cc(F)cc1F)c1cn2c(c(O)c1=O)C(=O)N1[C@@H]3C[C@@H]([C@H](F)C3)[C@@H]1C2 [Compound 59, (1R,2R,4R,12aR)-2-fluoro-7-hydroxy-6,8-dioxo-N-(2,4,6-trifluorobenzyl)-1,2,3,4,6,8,12,12a-octahydro-1,4-methanodipyrido[1,2-a:1′,2′-d]pyrazine-9-carboxamide]	4	22200
O=C(NCc1ccc(Cl)cc1F)c1cn2c(c(O)c1=O)C(=O)N1[C@@H]3CC[C@@H](C3)O[C@H]1C2 [Compound 17, (2S,5R,13aS)-N-(4-chloro-2-fluorobenzyl)-8-hydroxy-7,9-dioxo-2,3,4,5,7,9,13,13a-octahydro-2,5-methanopyrido[1′,2′:4,5]pyrazino[2,1-b][1,3]oxazepine-10-carboxamide]	7	6610
O=C(NCc1cccc(Cl)c1Cl)c1cn2c(c(O)c1=O)C(=O)N1[C@H]3CC[C@H](C3)[C@@H]1C2 [Compound 60, (1R,4S,12aR)-N-(2,3-dichlorobenzyl)-7-hydroxy-6,8-dioxo-1,2,3,4,6,8,12,12a-octahydro-1,4-methanodipyrido[1,2-a:1′,2′-d]pyrazine-9-carboxamide]	3	3310
O=C(NCc1cc(F)ccc1F)c1cn2c(c(O)c1=O)C(=O)N1[C@H]3CC[C@H](C3)O[C@@H]1C2 [Compound 89, (2R,5S,13aR)-N-(2,5-difluorobenzyl)-8-hydroxy-7,9-dioxo-2,3,4,5,7,9,13,13a-octahydro-2,5-methanopyrido[1′,2′:4,5]pyrazino[2,1-b][1,3]oxazepine-10-carboxamide]	5	4630
O=C(NCc1c(F)cccc1F)c1cn2c(c(O)c1=O)C(=O)N1[C@@H]3CC[C@@H](C3)O[C@H]1C2 [Compound 46, (13aS)-N-(2,6-difluorobenzyl)-8-hydroxy-7,9-dioxo-2,3,4,5,7,9,13,13a-octahydro-2,5-methanopyrido[1′,2′:4,5]pyrazino[2,1-b][1,3]oxazepine-10-carboxamide]	34	19300
O=C(NC1(c2ccc(F)cc2F)CC1)c1cn2c(c(O)c1=O)C(=O)N1C(C2)O[C@@H]2CCC[C@H]1C2 (stereo partly drawn) [Compound 29, (2R,6S)-N-(1-(2,4-difluorophenyl)cyclopropyl)-9-hydroxy-8,10-dioxo-3,4,5,6,8,10,14,14a-octahydro-2H-2,6-methanopyrido[1′,2′:4,5]pyrazino[2,1-b][1,3]oxazocine-11-carboxamide]	3	9450

From patent US9663528B2, “Substituted 1,2,3,4,6,8,12,12a-octahydro-1,4-methanodipyrido[1,2-a:1',2'-d]pyrazines and methods for treating viral infections” (priority 2012, dated 2017)
